Columns and labels:
MDA-MB-231 [1] = experiment: Induction of apoptosis in human MDA-MB-231 2LMP cells assessed as cell death at 3 uM after 4 days by trypan blue exclusion assay; conditions: MDA-MB-231, 96 h
MDA-MB-231 [2] = experiment: Induction of apoptosis in human MDA-MB-231 2LMP cells assessed as cell death at 0.3 uM after 4 days by trypan blue exclusion assay; conditions: MDA-MB-231, 96 h

O=C(c1ccc(Oc2ccccc2)cc1)c1cc(C(=O)c2nc3ccccc3s2)c(O)c(O)c1O
cell death at 3 µM (MDA-MB-231 [1]): 86% | cell death at 0.3 µM (MDA-MB-231 [2]): 31%
